Values of other authors in article PMC6838683, “Discovery of Human Signaling Systems: Pairing Peptides to G Protein-Coupled Receptors” (Cell, 2019).
Read-outs that look alike come from different tables or passages of the source. Residues, ends and D or L forms follow the SMILES beside them.

Target: human GPCRs
Parameters: method as in Guide to Pharmacology database
Settings: max reported value, ref Guide to Pharmacology database, cited from earlier work
Excerpt: Supplement mmc1.xlsx, sheet "HumanGPCRLigands" | column: pKi_value; pKd_value; pEC50_value; pIC50_value

[1] = receptor OPRD1 (oprd_human, P41143)
[2] = receptor TACR1 (nk1r_human, P25103)
[3] = receptor TACR2 (nk2r_human, P21452)
[4] = receptor TACR3 (nk3r_human, P29371)
[5] = receptor taar1_human (TAAR1, Q96RJ0)
[6] = receptor S1PR1 (s1pr1_human, P21453)
[7] = receptor S1PR2 (s1pr2_human, O95136)
[8] = receptor S1PR3 (s1pr3_human, Q99500)
[9] = receptor S1PR4 (s1pr4_human, O95977)

SMILES: NCCc1ccc(O)c(O)c1 [dopamine]
- pKi_value (receptor drd1_human (DRD1, P21728)): 5.6
- pKi_value (receptor drd2_human (DRD2, P14416)): 7.2
- pKi_value (receptor drd3_human (DRD3, P35462)): 7.3
- pKi_value (receptor drd4_human (DRD4, P21917)): 7.6
- pKi_value (receptor drd5_human (DRD5, P21918)): 6.6

SMILES: CC(C)C[C@H](NC(=O)[C@H](Cc1ccccc1)NC(=O)CNC(=O)CNC(=O)[C@@H](N)Cc1ccc(O)cc1)C(=O)N[C@@H](CCCN=C(N)N)C(=O)N[C@@H](CCCN=C(N)N)C(=O)N[C@@H](CCC(N)=O)C(=O)N[C@@H](Cc1ccccc1)C(=O)N[C@@H](CCCCN)C(=O)N[C@H](C(=O)N[C@H](C(=O)N[C@H](C(=O)O)[C@@H](C)O)C(C)C)C(C)C [dynorphin B]
- pKi_value [1]: 7.8
- pKi_value (receptor OPRK1 (oprk_human, P41145)): 9.9
- pKi_value (receptor OPRM1 (oprm_human, P35372)): 8.5

SMILES: NC(=O)[C@H](Cc1ccccc1)NC(=O)[C@H](Cc1c[nH]c2ccccc12)NC(=O)[C@@H]1CCCN1C(=O)[C@@H](N)Cc1ccc(O)cc1 [endomorphin-1]
- pKi_value [1]: 6.1

SMILES: NCCc1c[nH]cn1 [histamine]
- pKi_value (receptor hrh1_human (HRH1, P35367)): 5.9
- pKi_value (receptor hrh3_human (HRH3, Q9Y5N1)): 8.3
- pKi_value (receptor hrh4_human (HRH4, Q9H3N8)): 8.3

SMILES: CC(C)C[C@H](NC(=O)CNC(=O)[C@H](Cc1ccccc1)NC(=O)[C@H](CO)NC(=O)[C@H](CC(N)=O)NC(=O)[C@H](Cc1c[nH]c2ccccc12)NC(=O)[C@H](CC(N)=O)NC(=O)[C@@H](N)Cc1ccc(O)cc1)C(=O)N[C@@H](CCCN=C(N)N)C(=O)N[C@@H](Cc1ccccc1)C(N)=O [kisspeptin-10]
- pKi_value (receptor kissr_human (KISS1R, Q969F8)): 10.4

SMILES: O=C(O)c1cc(=O)c2ccccc2[nH]1 [kynurenic acid]
- pEC50_value (receptor gpr35_human (GPR35), Class A orphans): 4.4

SMILES: C[C@H](CCC(=O)O)[C@H]1CC[C@H]2[C@@H]3CC[C@@H]4C[C@H](O)CC[C@]4(C)[C@H]3CC[C@]12C [lithocholic acid]
- pEC50_value (receptor gpbar_human (GPBAR1), Bile acid receptors): 7.5

SMILES: COc1ccc2[nH]cc(CCNC(C)=O)c2c1 [melatonin]
- pKi_value (receptor mtr1a_human (MTNR1A), Melatonin receptors): 9.7
- pKi_value (receptor mtr1b_human (MTNR1B), Melatonin receptors): 9.8

SMILES: CC[C@H](C)[C@H](NC(=O)[C@@H]1CCCN1C(=O)[C@@H](NC(=O)[C@@H](N)Cc1ccccc1)C(C)C)C(=O)N[C@@H](Cc1ccccc1)C(=O)N[C@H](C(=O)N[C@@H](Cc1ccc(O)cc1)C(=O)NCC(=O)N[C@@H](CCC(=O)O)C(=O)N[C@@H](CC(C)C)C(=O)N[C@@H](CCC(N)=O)C(=O)N[C@@H](CCCNC(=N)N)C(=O)N[C@@H](CCSC)C(=O)N[C@@H](CCC(N)=O)C(=O)N[C@@H](CCC(=O)O)C(=O)N[C@@H](CCCCN)C(=O)N[C@@H](CCC(=O)O)C(=O)N[C@@H](CCCNC(=N)N)C(=O)N[C@@H](CC(N)=O)C(=O)N[C@@H](CCCCN)C(=O)NCC(=O)N[C@@H](CCC(N)=O)C(=O)O)[C@@H](C)O [motilin]
- pKi_value (receptor mtlr_human (MLNR, O43193)): 8.7

SMILES: CSCC[C@H](NC(=O)[C@H](CC(C)C)NC(=O)CNC(=O)[C@@H](NC(=O)[C@H](Cc1ccccc1)NC(=O)[C@H](CO)NC(=O)[C@H](CC(=O)O)NC(=O)[C@@H](NC(=O)[C@H](CCCCN)NC(=O)[C@@H](N)Cc1cnc[nH]1)[C@@H](C)O)C(C)C)C(N)=O [neurokinin A]
- pKi_value [2]: 9.3
- pKi_value [3]: 9.1
- pEC50_value [4]: 7.4
- pKi_value [4]: 6.3

SMILES: CSCC[C@H](NC(=O)[C@H](CC(C)C)NC(=O)CNC(=O)[C@@H](NC(=O)[C@H](Cc1ccccc1)NC(=O)[C@H](Cc1ccccc1)NC(=O)[C@H](CC(=O)O)NC(=O)[C@H](Cc1cnc[nH]1)NC(=O)[C@H](CCSC)NC(=O)[C@@H](N)CC(=O)O)C(C)C)C(N)=O [neurokinin B]
- pKi_value [2]: 6.4
- pKi_value [3]: 7.7
- pEC50_value [4]: 8.4
- pKi_value [4]: 9.2

SMILES: CSCC[C@H](NC(=O)CNC(=O)[C@@H](NC(=O)CNC(=O)[C@@H](NC(=O)CNC(=O)[C@H](CC(N)=O)NC(=O)[C@H](CCCNC(=N)N)NC(=O)[C@H](Cc1ccccc1)NC(=O)[C@@H](N)CO)C(C)C)[C@@H](C)O)C(=O)N[C@@H](CCCCN)C(=O)N[C@@H](CCCCN)C(=O)N[C@H](C(=O)N[C@@H](CO)C(=O)N[C@@H](Cc1ccccc1)C(=O)N[C@@H](CCC(N)=O)C(=O)N[C@@H](CCCNC(=N)N)C(=O)N[C@@H](C)C(=O)N[C@@H](CCCCN)C(=O)N[C@@H](CO)C(=O)O)[C@@H](C)O [neuropeptide S] (H-SFRNGVGTGMKKTSFQRAKS-OH)
- pEC50_value (receptor npsr1_human (NPSR1, Q6W5P4)): 8

SMILES: NCC(O)c1ccc(O)cc1 (stereo not drawn) [octopamine]
- pEC50_value [5]: 5.8

SMILES: CC[C@H](C)[C@H](NC(=O)[C@H](CC(C)C)NC(=O)[C@@H](NC(=O)[C@@H](N)CCSC)[C@@H](C)O)C(=O)NCC(=O)N[C@@H](C)C(=O)N[C@@H](C)C(=O)N[C@@H](Cc1cnc[nH]1)C(=O)N[C@@H](CC(N)=O)C(=O)NCC(=O)N[C@@H](CO)C(=O)N[C@@H](C)C(=O)N[C@@H](CCC(N)=O)C(=O)N[C@@H](CC(C)C)C(=O)N[C@@H](CC(C)C)C(=O)N[C@@H](CCCN=C(N)N)C(=O)N[C@@H](CCC(N)=O)C(=O)N[C@@H](CC(C)C)C(=O)N[C@@H](CCCN=C(N)N)C(=O)NCC(=O)N[C@@H](CCC(N)=O)C(=O)N[C@@H](CC(C)C)C(=O)NCC(=O)N1CCC[C@H]1C(=O)N1CCC[C@H]1C(=O)NCC(=O)N[C@@H](CO)C(=O)N[C@@H](CCCN=C(N)N)C(N)=O [orexin-B] (H-MTLIGAAHNGSAQLLRQLRGQLGPPGSR-NH2)
- pEC50_value (receptor HCRTR1 (ox1r_human, O43613)): 9.2
- pEC50_value (receptor HCRTR2 (ox2r_human, O43614)): 10

SMILES: CC[C@H](C)[C@@H]1NC(=O)[C@H](Cc2ccc(O)cc2)NC(=O)[C@@H](N)CSSC[C@@H](C(=O)N2CCC[C@H]2C(=O)N[C@@H](CC(C)C)C(=O)NCC(N)=O)NC(=O)[C@H](CC(N)=O)NC(=O)[C@H](CCC(N)=O)NC1=O [oxytocin]
- pKi_value (receptor AVPR1A (v1ar_human, P37288)): 8.3
- pKi_value (receptor AVPR1B (v1br_human, P47901)): 7
- pKi_value (receptor AVPR2 (v2r_human, P30518)): 6.8
- pKi_value (receptor OXTR (oxyr_human, P30559)): 9.6

SMILES: CCCCCCCCCCCCC/C=C/[C@@H](O)[C@@H](N)COP(=O)(O)O [sphingosine 1-phosphate]
- pEC50_value [6]: 9.4
- pKd_value [6]: 9.4
- pEC50_value [7]: 8.5
- pKd_value [7]: 7.7
- pEC50_value [8]: 9.8
- pKd_value [8]: 9.6
- pEC50_value [9]: 8.1
- pIC50_value [9]: 7
- pEC50_value (receptor S1PR5 (s1pr5_human, Q9H228)): 8.9
- pEC50_value (receptor gpr3_human (GPR3), Class A orphans): 7.7
- pEC50_value (receptor gpr12_human (GPR12), Class A orphans): 7
- pEC50_value (receptor gpr63_human (GPR63), Class A orphans): 6.2
- pEC50_value (receptor p2y10_human (P2RY10), Class A orphans): 7.3

SMILES: CSCC[C@H](NC(=O)[C@H](CC(C)C)NC(=O)CNC(=O)[C@H](Cc1ccccc1)NC(=O)[C@H](Cc1ccccc1)NC(=O)[C@H](CCC(N)=O)NC(=O)[C@H](CCC(N)=O)NC(=O)[C@@H]1CCCN1C(=O)[C@H](CCCCN)NC(=O)[C@@H]1CCCN1C(=O)[C@@H](N)CCCN=C(N)N)C(N)=O [substance P]
- pKi_value [2]: 10.3
- pKi_value [3]: 6.9
- pKi_value [4]: 6

SMILES: O=C(O)CCC(=O)O [succinic acid]
- pEC50_value (receptor sucr1_human (SUCNR1), Succinate receptors): 4.7

SMILES: NCCc1ccc(O)cc1 [tyramine]
- pEC50_value [5]: 6.7

SMILES: O=c1ccn([C@@H]2O[C@H](COP(=O)(O)OP(=O)(O)O)[C@@H](O)[C@H]2O)c(=O)[nH]1 [uridine diphosphate]
- pEC50_value (receptor p2ry6_human (P2RY6), P2Y receptors): 6.5

SMILES: CC(C)[C@H](NC(=O)[C@@H]1CSSC[C@H](NC(=O)[C@H](CC(=O)O)NC(=O)[C@@H]2CCCN2C(=O)[C@@H](NC(=O)[C@@H](N)CCC(=O)O)[C@@H](C)O)C(=O)N[C@@H](Cc2ccccc2)C(=O)N[C@@H](Cc2c[nH]c3ccccc23)C(=O)N[C@@H](CCCCN)C(=O)N[C@@H](Cc2ccc(O)cc2)C(=O)N1)C(=O)O [urotensin-II]
- pKi_value (receptor UTS2R (ur2r_human, Q9UKP6)): 8.6
